Experiments:
[1] = system: Human CD3+ T cells; test: Cytokine expression after anti-CD3/28 T cell stimulation with or without HS-131; assay type: cell-based; details: HS-131 1 μM, 24 hours, vs vehicle
Method: The data were analyzed by 2-way ANOVA with Sidak's multiple comparison test, * p<0.05, ** p<0.01. *** p<0.001. Experiments were performed with 6 biological replicates. […] Experiments were performed with 3 biological replicates for each timepoint. […] Experiments were performed with 3 biological replicates for each timepoint. […] Temporal upregulation of eHsp90 (green line) post T cell stimulation. CD25 expression: 6-8 biological replicates per time point. eHsp90 expression 6 biological replicates for each timepoint. […] Data represent mean ±SD. The data were analyzed by 2-way ANOVA with Sidaks multiple comparison test. Experiments were performed once with 3 biological replicates. […] Data represent mean ±SEM. […] Experiment was performed once with 4 biological replicates.
Next, the expression of eHsp90 and total Hsp90 over the course of T cell activation was tracked. Both total Hsp90 cellular content and eHsp90 expression in anti-CD3/28 stimulated human PBMCs were evaluated. […] Specifically, anti-CD3/28 stimulation caused eHsp90 up regulation in CD69+/CD25+ and CD69+/CD25− T-cell populations with a 5-8 fold increase within the first 24 hours post activation, whereas CD69−/CD25− T cells show no increase in probe or eHsp90 levels (see. FIG. 3B). […] One candidate client eHsp90 protein is CD25, the IL-2 receptor. […] Here it was observed that CD25 expression peaked at 72 hours post activation, followed by a reduction in expression thereafter which correlates with reduced eHsp90 expression (see. FIG. 3D). Due to the tight correlation of CD25 and eHsp90 expression, it further tested whether exogenous IL-2 stimulation could maintain high expression of both proteins in activated T cells 72-96 hours post-stimulation. […] Due to IL-2's ability to enhance eHsp90 expression in activated cells, the impacts of eHsp90 inhibition in activated T cells on inflammatory signaling were investigated. Human CD3+ T cells were stimulated with CD3/CD28 activating antibodies for 24 hours in the presence of HS-131. Compared to vehicle treated cells. […] IFNY (p<0.001). IL-17A (p<0.001). MIP-1a/B (p=0.013) and TNF a (p=0.025) (see. FIG. 3F).

[2] = system: eHsp90; test: In vivo imaging of eHsp90 expression in T cell transfer mouse model of IBD; details: 10 nmoles IV
Method: The T cell transfer model of IBD was utilized to evaluate the imaging potential of HS-131 for other autoimmune diseases. Naïve T cells isolated from female donor mice were transferred into SCID mice via IP injection. 3-5 weeks post transfer mice develop inflammation, an extended colon and epithelial hyperplasia. 24 hours post HS-131 tail vein injection mice were cryopreserved and imaged as previously mentioned. […] Experiments represent one mouse.
IBD Disease: On study day 0, Balb/C mice were terminated, and spleens obtained for CD4+CD45RBhigh cell isolation. After cells had been sorted and obtained, each animal received an IP injection of at a minimum 4×10^5 cells (200 μl/mouse injections). […]
CryoViz™ Imaging: Whole mice were imaged at 10.23 μm×10.23 μm in-plane resolution using an Olympus MVX-10 microscope with a 1X objective and 0.63× magnification and 40 μm section thickness, using the Cryo Viz™ (BioInVision, Inc., Cleveland, USA). CryoViz™ is a fully automated, serial sectioning-and-imaging system which provides 3-dimensional, tiled, microscopic anatomical bright field and molecular fluorescence images over large fields-of-view such as a whole mouse. Images were acquired using a dual band FITC/TxRed fluorescence filter (Chroma, Inc., Rockingham, VT), a liquid crystal RGB filter and a low-noise monochrome camera. […]

## Cc1nn(-c2ccc(C(N)=O)c(NCCCOCCOCCOCCOCCOCCCNCc3ccc(C(=C\C=C4\N(CCCCS(=O)(=O)[O-])c5ccccc5C4(C)C)/C=C/C4=[N+](CCCCS(=O)(=O)O)c5ccccc5C4(C)C)cc3)c2)c2c1C(=O)CC(C)(C)C2 [HS-131]
[1]; p<0.001
  GM-CSF: significantly reduced
  IFNY: significantly reduced
  IL-17A: significantly reduced
[1]; p=0.013
  MIP-1a/B: significantly reduced
[1]; p=0.025
  TNF a: significantly reduced
[2]; 24 hours post injection
  uptake in joints or paws of IBD mouse: no uptake
[2]; 24 hours post injection (FIG. 7A)
  fluorescence from the inflamed bowels of IBD mouse: extensive fluorescent signaling

Source: US20240299358A1, “COMPOSITIONS AND METHODS FOR DIAGNOSIS AND TREATMENT OF AUTOIMMUNE DISEASES” (DUKE UNIVERSITY, priority 2021, published 2024)
